In patent US20250032525A1 (priority 2021, published 2025):
Where two headings read alike, the source gives them in different places.

Key:
A431-B1 = test: In vitro cytotoxicity; type: cell-based
Source text: (§1) Experiments were repeated at least 3 times.

A431-G2 = test: In vitro cytotoxicity; type: cell-based
Source text: as §1

A431 = test: In vitro cytotoxicity; type: cell-based
Source text: as §1

MES-SA/Dx5 = test: In vitro cytotoxicity; type: cell-based; conditions: MES-SA/Dx5; read-out: IC50
Source text: as §1

MES-SA = test: In vitro cytotoxicity; type: cell-based; conditions: read-out: IC50
Source text: as §1

P388/ADR = test: In vitro cytotoxicity; type: cell-based; conditions: read-out: IC50
Source text: as §1

P388 = test: In vitro cytotoxicity; type: cell-based
Source text: as §1

[1] = system: Lewis Lung Carcinoma (LLC) tumor; test: Mouse Lewis lung carcinoma (LLC) model; type: in vivo, C57BL/6 mice; conditions: single intravenous dose; cisplatin 5 mg/kg, LiPyDau 1 mg/kg
Description: FIG. 6. Anti-tumor effect of LiPyDau and cisplatin in the mouse Lewis lung cancer (LLC) lung carcinoma model. C57BL/6 mice received sc. injection of 2×10^5 LLC cells in 100 μl PBS. When the tumors were palpable, mice were randomized to receive a single intravenous dose of cisplatin (5 mg/kg) or LiPyDau (1 mg/kg) as indicated by the arrow. Control mice were treated with saline.
Mouse melanoma (B16), lung (Lewis lung carcinoma, LLC) and breast (4T1-LUC) cancer cell lines were used to establish allograft tumors for drug testing. 5×10^5 B16 or 2×10^5 LLC cells were inoculated subcutaneously in 200 μl serum-free culture media. 4T1-LUC tumors were established by injecting 1×10^6 cells in 20 μl serum-free culture media through the nipple directly to the breast tissue of 8 weeks old BALB/c mice on day 0). […] For the B16, LLC and 4T1-LUC tumor models 4, 6 and 6 mice were treated with LiPyDau while 4, 3 and 6 animals were in the saline treated groups, respectively.

NCI-60 cell lines = test: NCI DTP NCI-60 cell line screen database (sulforhodamine B), panel; type: cell-based; conditions: Homo sapiens
MALME-3M = conditions: NCI-60 database, sulforhodamine B, read-out: Cytotoxic IC50; cited from earlier work
SK-MEL-28 = conditions: SK-MEL-28, NCI-60 database, sulforhodamine B; read-out: Cytotoxic IC50; cited from earlier work
SK-MEL-2 = conditions: SK-MEL-2, NCI-60 database, sulforhodamine B; read-out: Cytotoxic IC50; cited from earlier work
HT29 = conditions: HT29, NCI-60 database, sulforhodamine B; read-out: Cytotoxic IC50; cited from earlier work
HCT-15 = conditions: HCT-15, NCI-60 database, sulforhodamine B; read-out: Cytotoxic IC50; cited from earlier work
COLO 205 = conditions: COLO 205, NCI-60 database, sulforhodamine B; read-out: Cytotoxic IC50; cited from earlier work
HCC-2998 = conditions: HCC-2998, NCI-60 database, sulforhodamine B; read-out: Cytotoxic IC50; cited from earlier work
HCT-116 = conditions: HCT-116, NCI-60 database, sulforhodamine B; read-out: Cytotoxic IC50; cited from earlier work
KM12 = conditions: KM12, NCI-60 database, sulforhodamine B; read-out: Cytotoxic IC50; cited from earlier work
SW-620 = conditions: SW-620, NCI-60 database, sulforhodamine B; read-out: Cytotoxic IC50; cited from earlier work
EKVX = conditions: NCI-60 database, sulforhodamine B, read-out: Cytotoxic IC50; cited from earlier work
HOP-62 = conditions: HOP-62, NCI-60 database, sulforhodamine B; read-out: Cytotoxic IC50; cited from earlier work
NCI-H226 = conditions: NCI-H226, NCI-60 database, sulforhodamine B; read-out: Cytotoxic IC50; cited from earlier work
PC-3 = conditions: PC-3, NCI-60 database, sulforhodamine B; read-out: Cytotoxic IC50; cited from earlier work
DU-145 = conditions: DU-145, NCI-60 database, sulforhodamine B; read-out: Cytotoxic IC50; cited from earlier work
HL-60(TB) = conditions: NCI-60 database, sulforhodamine B, read-out: Cytotoxic IC50; cited from earlier work
CCRF-CEM = conditions: NCI-60 database, sulforhodamine B, read-out: Cytotoxic IC50; cited from earlier work
OVCAR-3 = conditions: OVCAR-3, NCI-60 database, sulforhodamine B; read-out: Cytotoxic IC50; cited from earlier work
OVCAR-5 = conditions: OVCAR-5, NCI-60 database, sulforhodamine B; read-out: Cytotoxic IC50; cited from earlier work
OVCAR-8 = conditions: OVCAR-8, NCI-60 database, sulforhodamine B; read-out: Cytotoxic IC50; cited from earlier work
NCI/ADR-RES = conditions: NCI-60 database, sulforhodamine B, read-out: Cytotoxic IC50; cited from earlier work
UO-31 = conditions: UO-31, NCI-60 database, sulforhodamine B; read-out: Cytotoxic IC50; cited from earlier work
A498 = conditions: A498, NCI-60 database, sulforhodamine B; read-out: Cytotoxic IC50; cited from earlier work
CAKI-1 = conditions: CAKI-1, NCI-60 database, sulforhodamine B; read-out: Cytotoxic IC50; cited from earlier work
RXF 393 = conditions: RXF 393, NCI-60 database, sulforhodamine B; read-out: Cytotoxic IC50; cited from earlier work
MDA-MB-231 = conditions: MDA-MB-231, NCI-60 database, sulforhodamine B; read-out: Cytotoxic IC50; cited from earlier work
MCF7 = conditions: MCF7, NCI-60 database, sulforhodamine B; read-out: Cytotoxic IC50; cited from earlier work
T-47D = conditions: NCI-60 database, sulforhodamine B, read-out: Cytotoxic IC50; cited from earlier work
MDA-MB-435 = conditions: MDA-MB-435, NCI-60 database, sulforhodamine B; read-out: Cytotoxic IC50; cited from earlier work
HS 578T = conditions: NCI-60 database, sulforhodamine B, read-out: Cytotoxic IC50; cited from earlier work
BT-549 = conditions: BT-549, NCI-60 database, sulforhodamine B; read-out: Cytotoxic IC50; cited from earlier work
PANC-1 = conditions: PANC-1, from Varbanov et al. (2017), PrestoBlue; read-out: Cytotoxic IC50; cited from earlier work
[2] = Nagy et al.; cited from earlier work
[3] = system: Dunning R-3327-H prostate carcinoma; conditions: cited from earlier work
[4] = system: nitrosamine-induced pancreatic cancers; conditions: intraperitoneal, total dose of 100 nmol/kg; cited from earlier work
[5] = system: patient-derived lung adenocarcinoma xenografts; test: Patient-derived xenograft (PDX) model; type: in vivo, NSG mice; conditions: single treatment; LiPyDau 0.5 mg/kg, DOX 2 mg/kg, paclitaxel 12 mg/kg; 7 days
Source text: A piece from the tumor tissue was transplanted subcutaneously into the right flank and propagated in NOD.Cg-Prkdc^scid Il2rg^tm1Wjl/SzJ (NSG) mice for 7 months. After the xenografted tumor reached 1000 mm^3, tumor pieces were retransplanted subcutaneously into the right flank of 20 additional NSG mice, which were given a single treatment with various chemotherapeutics or LiPyDau. Every treatment group consists of 5 animals. After daily monitoring of the tumor volume for one week, the mice were sacrificed and the cytotoxicity of the treatments was investigated on tissue slices by image analysis.
For treatment, tumor pieces were engrafted subcutaneously.

Question: For N.N.[Cl][Pt][Cl] [Cisplatin, cisplatin], which IC50 (A431-B1) is on record?
Answer: 3950 nM

Question: And the IC50 (A431-G2)?
Answer: 1950 nM

Question: And the IC50 (A431)?
Answer: 3860 nM

Question: And the IC50 (MES-SA/Dx5)?
Answer: 12500 nM

Question: What about the IC50 (MES-SA) of the same compound?
Answer: 7580 nM

Question: What about the IC50 (P388/ADR) of the same compound?
Answer: 1180 nM

Question: What about the IC50 (P388) of the same compound?
Answer: 610 nM

Question: And the Tumor growth [1]?
Answer: did not have any measurable effect on tumor growth

Question: Which results are given for COc1cccc2c1C(=O)c1c(O)c3c(c(O)c1C2=O)C[C@@](O)(C(C)=O)C[C@@H]3O[C@H]1C[C@H](N)[C@H](O)[C@H](C)O1 [Dau, daunorubicin]?
Answer: IC50 (NCI-60 cell lines; read-out: Cytotoxic IC50, av. breast): 112 nM; IC50 (NCI-60 cell lines; read-out: Cytotoxic IC50, av. colorectal): 145 nM; IC50 (NCI-60 cell lines; read-out: Cytotoxic IC50, av. leukaemia): 27 nM; IC50 (NCI-60 cell lines; read-out: Cytotoxic IC50, av. lung): 157 nM; IC50 (NCI-60 cell lines; read-out: Cytotoxic IC50, av. melanoma): 113 nM; IC50 (NCI-60 cell lines; read-out: Cytotoxic IC50, av. ovarian): 388 nM; IC50 (NCI-60 cell lines; read-out: Cytotoxic IC50, av. prostatic): 92.2 nM; IC50 (NCI-60 cell lines; read-out: Cytotoxic IC50, av. renal): 158 nM; IC50 (MALME-3M): 49.7 nM; IC50 (SK-MEL-28): 132 nM; IC50 (SK-MEL-2): 158 nM; IC50 (HT29): 50.7 nM; IC50 (HCT-15): 650 nM; IC50 (COLO 205): 52.5 nM; IC50 (HCC-2998): 99.3 nM; IC50 (HCT-116): 28.6 nM; IC50 (KM12): 95.9 nM; IC50 (SW-620): 35.5 nM; IC50 (EKVX): 360 nM; IC50 (HOP-62): 53 nM; IC50 (NCI-H226): 46.5 nM; IC50 (PC-3): 108 nM; IC50 (DU-145): 76.7 nM; IC50 (HL-60(TB)): 31.2 nM; IC50 (CCRF-CEM): 22.8 nM; IC50 (OVCAR-3): 124 nM; IC50 (OVCAR-5): 155 nM; IC50 (OVCAR-8): 41.6 nM; IC50 (NCI/ADR-RES): 1230 nM; IC50 (UO-31): 175 nM; IC50 (A498): 137 nM; IC50 (CAKI-1): 229 nM; IC50 (RXF 393): 92.5 nM; IC50 (MDA-MB-231): 201 nM; IC50 (MCF7): 19.5 nM; IC50 (T-47D): 40.8 nM; IC50 (MDA-MB-435): 137 nM; IC50 (HS 578T): 120 nM; IC50 (BT-549): 153 nM; IC50 (PANC-1): 260 nM

Question: Which results are given for COc1cccc2c1C(=O)c1c(O)c3c(c(O)c1C2=O)C[C@@](O)(C(=O)CO)C[C@@H]3O[C@H]1C[C@H](N2C=CCC2)[C@H](O)[C@H](C)O1 [PyDox, 2-pyrrolino-doxorubicin]?
Answer: Potency in vitro relative to Dox [2]: 500-1000 times; Animals that died ([3]; 3×25 nmol/kg, rats): 6 of 10; Change in the number of mitotic or apoptotic cells ([3]; after treatment in rats): no significant change in the number of mitotic or apoptotic cells; Mortality ([3]; dose of 50 nmol/kg, rats): death of all rats; Hamsters that died [4]: 16 of 18

Question: For CC(=O)O[C@H]1C(=O)[C@@]2(C)[C@H]([C@H](OC(=O)c3ccccc3)[C@]3(O)C[C@H](OC(=O)[C@H](O)[C@@H](NC(=O)c4ccccc4)c4ccccc4)C(C)=C1C3(C)C)[C@]1(OC(C)=O)CO[C@@H]1C[C@@H]2O [paclitaxel], which Tumor growth [5] is on record?
Answer: failed to exert any effect on tumor growth
